# Assay results published in patent publication US20040175762A1, “Screening system based on expression of abcg2 half transporter protein” (priority 2001, published 2004).
# Like-named read-outs stand apart in the source and are kept apart here.
# How the values were obtained:
# [1] = target: T1, ABCG2 (Homo sapiens, UniProt Q9UNQ0, R482G); assay: Vanadate sensitive ATPase activity in isolated membranes of ABCG2-expressing Sf9 cells
# T1 sequence (Q9UNQ0 1-655 R482G): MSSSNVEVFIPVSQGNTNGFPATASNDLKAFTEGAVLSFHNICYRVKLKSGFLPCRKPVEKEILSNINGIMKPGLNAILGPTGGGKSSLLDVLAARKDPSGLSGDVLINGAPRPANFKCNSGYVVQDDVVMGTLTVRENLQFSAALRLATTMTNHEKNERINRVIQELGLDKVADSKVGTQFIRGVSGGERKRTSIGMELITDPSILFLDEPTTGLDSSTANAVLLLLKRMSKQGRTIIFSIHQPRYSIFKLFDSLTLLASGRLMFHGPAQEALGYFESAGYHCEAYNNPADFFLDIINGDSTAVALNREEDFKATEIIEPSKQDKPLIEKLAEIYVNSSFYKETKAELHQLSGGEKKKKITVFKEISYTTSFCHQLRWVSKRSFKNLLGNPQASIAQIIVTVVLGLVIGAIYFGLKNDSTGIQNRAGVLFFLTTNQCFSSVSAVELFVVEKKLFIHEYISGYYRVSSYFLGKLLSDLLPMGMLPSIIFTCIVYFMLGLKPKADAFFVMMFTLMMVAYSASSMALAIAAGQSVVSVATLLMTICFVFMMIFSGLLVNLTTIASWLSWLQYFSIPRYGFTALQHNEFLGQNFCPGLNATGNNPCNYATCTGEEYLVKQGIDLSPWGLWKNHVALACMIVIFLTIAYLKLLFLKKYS
# Text: FIG. 2: Comparison of the effects of various compounds on the vanadate sensitive ATPase activity in isolated Sf9 membranes of ABCG2 (FIG. 2a) or MDR1 (FIG. 2b) expressing Sf9 cells. […] Data points indicate the mean±S.D. values of at least four measurements, performed in two or three different membrane preparations.
# Individual clones expressing high levels of the human ABCG2 were obtained by end-point dilution and subsequent amplification. The clone producing the highest yield of the ABCG2 protein was selected by immunoblotting (see below).
# The reaction mixture contained 40 mM MOPS-Tris (pH 7.0), 50 MM KCl, 2 mM dithiothreitol, 500 μM EGTA-Tris, 5 mM Na-azide, 1 mM oubain and 5-20 μg membrane protein. […] The vanadate sensitive faction was determined in the presence of 1 mM Na-orthovanadate.
# [2] = target: T1, ABCG2; assay: Hoechst dye uptake in intact Sf9 cells expressing ABCG2 (fluorescence spectrophotometry); assay type: cell-based; parameters: removing the full length human ABCG2 cDNA (G482 variant); expressed in transfected cells; host or cells: Sf9 insect cells infected with recombinant baculovirus
# Procedure: FIG. 6. Hoechst dye uptake followed by fluorescence spectrophotometry in Sf9 cells expressing ABCG2482G (Panel A) or ABCG2 K86M mutant (Panel B). Abscissa: time in seconds. Ordinate: relative fluorescence in arbitrary units.
# Hoechst33342 uptake—Hoechst dye uptake (5 μM) was measured in a fluorescence spectrophotometer at 350 nm (excitation)/460 nm (emission), by using 3×10^5 cells in a HPMI solution. This dye becomes fluorescent only in a complex with DNA (Haugland, MP catalogue). The initial increase of fluorescence is due to a rapid dye uptake and nuclear staining in dead cells, while further cellular dye uptake is reflected by an increase in fluorescence. At the end of each experiment, for standardization, a full cellular staining is obtained by the addition of 8 μM digitonin, disrupting the integrity of the cell membrane.
# [3] = target: T1, ABCG2
# Procedure: FIG. 5. Mitoxantrone uptake in intact Sf9 cells expressing ABCG2 variants.
# Flow-cytometry determination of MX fluorescence after 30 min incubation at 37° C.
# Cells were washed once and suspended in HPMI. Aliquots of the suspension containing 3×10^5 cells were incubated with or without the addition of 5 μM MX, and also with 5 μM MX+10 μM FTC (a specific inhibitor of ABCG2). After an incubation for 30 minutes at 37° C. the cells were washed with ice-cold HPMI medium and than suspended in ice-cold HPMI containing 1.51 μl 10 mg/ml propidium-iodide and stored on ice until the flow cytometry measurements. […] Events were counted up to 15000 and dead cells were excluded based on propidium iodide staining.
# [4] = target: human MDR1 protein (Homo sapiens, UniProt P08183)
# Text: Data points indicate the mean±S.D. values of at least four measurements, performed in two or three different membrane preparations. Control values show the activity measured in the absence of added compounds.
# [5] = relative to the ATPase activity measured in the absence of compound
# human MDR1 protein, sequence (P08183 whole entry): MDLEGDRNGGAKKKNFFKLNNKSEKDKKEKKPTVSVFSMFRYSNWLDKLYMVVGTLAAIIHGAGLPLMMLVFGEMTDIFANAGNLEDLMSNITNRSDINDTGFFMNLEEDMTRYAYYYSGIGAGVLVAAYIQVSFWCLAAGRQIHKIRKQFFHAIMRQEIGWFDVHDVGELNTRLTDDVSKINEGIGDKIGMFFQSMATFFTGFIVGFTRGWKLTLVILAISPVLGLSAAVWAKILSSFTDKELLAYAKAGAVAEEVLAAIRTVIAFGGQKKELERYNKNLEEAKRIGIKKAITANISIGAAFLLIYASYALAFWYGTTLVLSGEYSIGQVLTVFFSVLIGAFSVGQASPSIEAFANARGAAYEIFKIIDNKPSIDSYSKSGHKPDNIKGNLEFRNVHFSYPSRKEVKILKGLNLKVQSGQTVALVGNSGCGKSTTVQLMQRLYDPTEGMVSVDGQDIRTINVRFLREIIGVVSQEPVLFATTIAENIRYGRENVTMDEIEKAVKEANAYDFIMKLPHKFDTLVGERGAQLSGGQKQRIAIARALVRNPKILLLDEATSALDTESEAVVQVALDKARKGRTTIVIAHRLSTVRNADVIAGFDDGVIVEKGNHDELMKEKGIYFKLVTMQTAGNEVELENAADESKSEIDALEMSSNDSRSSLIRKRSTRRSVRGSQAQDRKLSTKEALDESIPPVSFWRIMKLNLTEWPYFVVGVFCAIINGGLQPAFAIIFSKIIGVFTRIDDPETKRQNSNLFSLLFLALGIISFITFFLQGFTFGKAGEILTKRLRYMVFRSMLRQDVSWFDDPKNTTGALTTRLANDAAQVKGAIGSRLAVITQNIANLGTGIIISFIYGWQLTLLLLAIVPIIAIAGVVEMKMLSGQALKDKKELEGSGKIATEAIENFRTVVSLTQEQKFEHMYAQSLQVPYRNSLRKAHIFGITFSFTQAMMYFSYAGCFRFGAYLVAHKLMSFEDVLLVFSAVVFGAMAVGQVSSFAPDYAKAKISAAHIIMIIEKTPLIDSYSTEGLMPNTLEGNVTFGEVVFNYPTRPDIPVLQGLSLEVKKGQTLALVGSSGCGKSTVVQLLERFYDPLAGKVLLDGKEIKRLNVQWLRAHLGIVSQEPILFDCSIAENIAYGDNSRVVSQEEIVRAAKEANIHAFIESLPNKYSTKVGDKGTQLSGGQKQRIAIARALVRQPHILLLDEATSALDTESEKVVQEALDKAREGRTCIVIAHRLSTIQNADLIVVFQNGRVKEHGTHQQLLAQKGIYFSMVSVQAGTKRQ
molecule,measurement,setting,value
"CCN1C(=O)C=CC1=O [NEM, N-ethylmaleimide]",Ki,[1],10 µM
"CCOc1ccc(-c2nc3ccc(-c4nc5ccc(N6CCN(C)CC6)cc5[nH]4)cc3[nH]2)cc1 [Hoechst dye, Hoechst33342]",Hoechst dye extrusion by ABCG2-expressing Sf9 cells,[2],actively extrude
COc1cccc2c1C(=O)c1c(O)c3c(c(O)c1C2=O)C[C@@](O)(C(=O)CO)C[C@@H]3O[C@H]1C[C@H](N)[C@H](O)[C@H](C)O1 [Doxorubicin],Emax,"[1]; human, pH 7",30%
same,Kact,"[1]; human, pH 7",5 mM
COc1cccc2c1C(=O)c1c(O)c3c(c(O)c1C2=O)C[C@@](O)(C(C)=O)C[C@@H]3O[C@H]1C[C@H](N)[C@H](O)[C@H](C)O1 [Daunorubicin],Emax,"[1]; human, pH 7",50%
same,Kact,"[1]; human, pH 7","2,5 mM"
COc1ccc2c3c([nH]c2c1)[C@H](C=C(C)C)N1C(=O)[C@@H]2CCCN2C(=O)[C@@H]1C3 [Fumitremorgin C],Effect on active extrusion of fluorescent compounds by ABCG2 482 variants,"[3]; 482R, 482G, 482T variants, intact Sf9 cells",inhibited
same,Ki,[1],1.3 µM
same,Maximum inhibition (%),[1]; [5],74%
same,Effect on ABCG2-ATPase activity,[1]; result in words,strongly inhibited
same,Effect on verapamil stimulated MDR1-ATPase activity,[4]; 33 μM verapamil,no significant effect
same,Effect on MDR1-ATPase activity,"[4]; basal, result in words",no significant effect
Nc1ncnc2c1ncn2[C@@H]1O[C@H](COP(=O)(O)OP(=O)([O-])OP(=O)([O-])O)[C@@H](O)[C@H]1O.[Mg+2] [MgATP],Km,[1],~300 µM
same,MgATP concentration producing half-maximum membrane ATPase activity,[1],0.3 mM
same,Km,"[1]; read-out: KM ATP, without an added substrate",600 µM
"CC(=O)OCOC(=O)CN(CC(=O)OCOC(C)=O)Cc1cc2c(cc1OC(C)=O)Oc1cc(OC(C)=O)c(CN(CC(=O)OCOC(C)=O)CC(=O)OCOC(C)=O)cc1C21OC(=O)c2ccccc21 [Calcein-AM, calcein acetoxy-methylesther]",Effect on ABCG2-ATPase activity,[1]; result in words,no effect
same,"Kact, MDR1-ATPase",[4],about 1 μM
same,Stimulation of MDR1-ATPase,[4],4.5 fold
O=C1c2c(O)ccc(O)c2C(=O)c2c(NCCNCCO)ccc(NCCNCCO)c21 [Mitoxantrone],Mitoxantrone extrusion by ABCG2-expressing Sf9 cells,"[3]; intact cells, flow cytometry",actively extrude
same,Effect on ABCG2-ATPase activity,"[1]; human, pH 7",stimulated the ABCG2-ATPase activity in a concentration dependent manner
same,Emax,"[1]; human, pH 7",40%
same,Kact,"[1]; human, pH 7",7 mM
same,Effect on MDR1-ATPase activity,[4],no significant effect
[Na+].[Na+].[Na+].[O]=[V]([O-])([O-])[O-] [Na-orthovanadate],Ki,[1],~20 µM
Rhodamine 123,Kact,[1],"4,5 mM"
same,Maximum stimulation (%),[1]; [5],20%
